Patent publication US11352350B2, “IRAK degraders and uses thereof” (Kymera Therapeutics, Inc., priority 2018, dated 2022)
pIC50: −log10 of the molar value. Where two headings read alike, the source gives them in different places.

Legend:
IRAK4 [1] = target: T1, IRAK4 (Homo sapiens (Human), UniProt Q9NWZ3); assay: IRAK4 degradation in OCI-LY10 (DC50); format: cell-based
SU-DHL2 = SU-DHL2 viability, CTG; format: cell-based
OCI-LY10 [2] = assay: OCI-LY10 viability, CTG; format: cell-based
SU-DHL6 = SU-DHL6 viability, CTG; format: cell-based
OCI-LY19 = OCI-LY19 viability, CTG; format: cell-based
IRAK4 [3] = target: T1, IRAK4; assay: IRAK4 WB degradation (DC50); format: cell-based
AIOLOS [4] = target: T2, AIOLOS (Homo sapiens (Human), UniProt Q96SW2+Q9UKT9); assay: AIOLOS degradation in OCI-LY10 (DC50); format: cell-based
T2 sequence (Q9UKT9 whole entry): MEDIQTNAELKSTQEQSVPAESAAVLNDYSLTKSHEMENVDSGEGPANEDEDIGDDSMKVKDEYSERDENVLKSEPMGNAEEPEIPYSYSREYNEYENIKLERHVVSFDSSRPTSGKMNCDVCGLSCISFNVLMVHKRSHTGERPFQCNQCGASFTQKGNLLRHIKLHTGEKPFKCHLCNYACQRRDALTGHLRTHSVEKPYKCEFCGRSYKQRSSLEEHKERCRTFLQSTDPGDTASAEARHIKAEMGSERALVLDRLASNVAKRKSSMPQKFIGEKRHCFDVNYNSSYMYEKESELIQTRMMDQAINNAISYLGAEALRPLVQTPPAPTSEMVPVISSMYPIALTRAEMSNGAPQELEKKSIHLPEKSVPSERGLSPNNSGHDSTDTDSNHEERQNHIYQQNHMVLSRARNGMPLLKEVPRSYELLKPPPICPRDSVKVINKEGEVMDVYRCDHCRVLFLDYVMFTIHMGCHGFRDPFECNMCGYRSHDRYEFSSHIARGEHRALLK
T2 sequence (Q96SW2 whole entry): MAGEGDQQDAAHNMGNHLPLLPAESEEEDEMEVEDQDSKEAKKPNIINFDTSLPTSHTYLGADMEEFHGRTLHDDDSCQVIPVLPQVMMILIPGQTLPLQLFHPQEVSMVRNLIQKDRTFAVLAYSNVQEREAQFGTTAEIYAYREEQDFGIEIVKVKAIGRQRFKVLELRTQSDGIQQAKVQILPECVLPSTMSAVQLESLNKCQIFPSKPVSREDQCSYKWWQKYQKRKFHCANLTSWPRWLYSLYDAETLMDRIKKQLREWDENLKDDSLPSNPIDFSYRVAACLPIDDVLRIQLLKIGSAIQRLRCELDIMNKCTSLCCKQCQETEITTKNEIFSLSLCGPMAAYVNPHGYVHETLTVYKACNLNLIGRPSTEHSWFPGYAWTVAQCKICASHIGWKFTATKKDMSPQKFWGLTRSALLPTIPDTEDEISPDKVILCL
T2 sequence (Q16531 whole entry partner): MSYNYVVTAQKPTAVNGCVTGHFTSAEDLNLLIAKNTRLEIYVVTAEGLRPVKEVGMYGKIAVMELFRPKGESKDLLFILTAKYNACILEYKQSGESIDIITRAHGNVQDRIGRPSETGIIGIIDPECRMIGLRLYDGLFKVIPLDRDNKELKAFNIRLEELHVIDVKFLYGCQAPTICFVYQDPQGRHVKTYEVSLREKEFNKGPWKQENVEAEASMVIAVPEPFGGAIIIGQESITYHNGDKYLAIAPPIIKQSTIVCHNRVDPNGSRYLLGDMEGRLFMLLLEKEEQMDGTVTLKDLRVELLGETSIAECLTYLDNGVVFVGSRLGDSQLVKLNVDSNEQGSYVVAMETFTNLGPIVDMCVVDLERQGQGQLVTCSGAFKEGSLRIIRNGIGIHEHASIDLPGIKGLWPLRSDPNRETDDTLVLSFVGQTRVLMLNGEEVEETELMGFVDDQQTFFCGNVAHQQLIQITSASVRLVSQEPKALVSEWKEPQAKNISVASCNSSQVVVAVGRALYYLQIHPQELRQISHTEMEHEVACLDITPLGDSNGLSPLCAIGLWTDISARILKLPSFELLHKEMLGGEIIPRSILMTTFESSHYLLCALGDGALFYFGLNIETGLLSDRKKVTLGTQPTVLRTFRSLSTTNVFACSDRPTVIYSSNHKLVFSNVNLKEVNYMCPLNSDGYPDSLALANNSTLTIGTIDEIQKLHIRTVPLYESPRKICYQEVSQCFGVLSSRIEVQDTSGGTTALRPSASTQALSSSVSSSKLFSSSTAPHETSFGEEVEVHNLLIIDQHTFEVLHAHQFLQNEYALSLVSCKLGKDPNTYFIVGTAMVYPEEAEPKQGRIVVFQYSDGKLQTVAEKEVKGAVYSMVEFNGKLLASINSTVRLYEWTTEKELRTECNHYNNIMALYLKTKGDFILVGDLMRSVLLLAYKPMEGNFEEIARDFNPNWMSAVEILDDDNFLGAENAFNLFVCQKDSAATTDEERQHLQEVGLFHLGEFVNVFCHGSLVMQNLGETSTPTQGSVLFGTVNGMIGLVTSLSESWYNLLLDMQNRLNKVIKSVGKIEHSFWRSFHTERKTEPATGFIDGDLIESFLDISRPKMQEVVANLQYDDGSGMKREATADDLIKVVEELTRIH

OCI-LY10 [5] = assay: CTG Cell Viability Assay - OCI-LY10; format: cell-based, human; details: OCI-LY10, 4 days, read-out: CTG Cell Viability Assay - OCI-LY10: Average external-IC50
Outline: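 OCI-LY10 cells exposed to 9-dose, 1:3 dilutions from 10 μM top (0.2% DMSO) for 4 days at 37° C, 5% CO2. Viability by CellTiter-Glo luminescence; IC50 from three-parameter logistic fit.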

OCI-LY3 = OCI-LY3 viability, CTG; format: cell-based; details: Homo sapiens, MYD88 MUT
IRAK4 [6] = target: T1, IRAK4; assay: IRAK4 MSD degradation in OCI-LY10; format: cell-based; details: MSD
Outline: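 OCI-LY10 cells treated with 8-point 1:3 dilutions (top 1 to 10 μM final) for 4 to 24 h at 37° C. Lysate IRAK4 measured by MSD sandwich immunoassay (2H9 capture, Y279 detection, SULFO-TAG anti-rabbit). DC50 from three-parameter logistic fit.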

U2932 = U2932 viability, CTG; format: cell-based
IKAROS [7] = target: T3, IKAROS (Homo sapiens (Human), UniProt Q13422+Q96SW2); assay: IKAROS degradation in OCI-LY10 (DC50); format: cell-based
T3 sequence (Q13422 whole entry): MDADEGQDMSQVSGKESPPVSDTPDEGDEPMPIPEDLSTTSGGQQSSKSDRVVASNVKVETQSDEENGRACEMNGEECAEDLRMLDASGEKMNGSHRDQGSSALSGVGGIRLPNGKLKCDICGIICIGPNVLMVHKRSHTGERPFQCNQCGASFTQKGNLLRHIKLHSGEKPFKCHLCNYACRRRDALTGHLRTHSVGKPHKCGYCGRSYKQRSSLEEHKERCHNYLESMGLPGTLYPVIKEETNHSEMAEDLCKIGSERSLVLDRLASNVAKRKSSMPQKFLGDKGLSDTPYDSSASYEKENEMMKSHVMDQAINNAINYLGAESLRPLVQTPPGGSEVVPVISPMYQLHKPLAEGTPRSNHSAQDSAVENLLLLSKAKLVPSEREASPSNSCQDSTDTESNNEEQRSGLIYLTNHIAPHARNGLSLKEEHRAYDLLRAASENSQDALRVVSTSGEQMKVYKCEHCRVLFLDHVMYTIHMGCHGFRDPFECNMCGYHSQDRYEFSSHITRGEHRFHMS
T3 sequence (Q96SW2 whole entry): as the sequence (Q96SW2 whole entry) above
T3 sequence (Q16531 whole entry partner): as the sequence (Q16531 whole entry partner) above

IL-6 = IL-6 secretion in hPBMC using R848 stimulation; format: cell-based, human
IRAK4 [8] = target: T1, IRAK4; assay: hPBMC IRAK4 degradation flow assay; format: cell-based; details: hPBMC monocyte, 20 hr, flow assay; read-out: IRAK4 degradation in hPBMC monocyte at 20 hr: Average external Abs DC50
Outline: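 Thawed human PBMCs treated with 10-point, 5-fold compound dilutions (0.1% DMSO) at 37° C. for 20 hours or 4 hours. IRAK4 measured by flow MFI in CD14+ monocytes and CD14− lymphocytes, normalized to DMSO and 10 μM 20-hour control; DC50 and max degradation from 4-parameter logistic fit.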

IRAK4 [9] = target: T1, IRAK4; assay: IRAK4 degradation in OCI-LY10 tumor xenograft; format: in vivo; details: for IRAK4 ↓ (% Control): OCI-LY10 tumor xenograft, sample time 24 h
OCI-LY10 tumor xenograft = assay: OCI-LY10 tumor xenograft, tumor volume; format: in vivo; details: PO
IKAROS [10] = target: T3, IKAROS; assay: Ikaros degradation in OCI-LY10 tumor xenograft; format: in vivo; details: sample time 24 h
IFIT3 = assay: Interferon response IFIT3 in OCI-LY10 tumor xenograft; format: in vivo; details: sample time 24 h
AIOLOS [11] = target: T2, AIOLOS; assay: Aiolos degradation in OCI-LY10 tumor xenograft; format: in vivo; details: sample time 24 h
IFIT1 = assay: Interferon response IFIT1 in OCI-LY10 tumor xenograft; format: in vivo; details: sample time 24 h
C57BL/6 mice = assay: IMQ (imiquimod) induced psoriasis; format: in vivo, mouse; details: oral dosing; FIG. 36
Description: A model of psoriasis includes the effects of degrader on epidermal hyperplasia development induced by daily topical application of 5% imiquimod in C57BL/6 mice. On each of Days 0 to 6, mice had 5% imiquimod cream administered topically on left ear and shaved back skin. Control mice (no imiquimod group) received control cream without imiquimod. […] The last dosing was on Day 6 for all mice. All dosing was at the same time (+/−1 hour) each day. For the BID groups there was no less than 9 and no more than 15 hours between doses. Readouts were body weight, PASI score, and skin thickness. Body weight was measured 3 times/week, starting on Day −3. Once on each of Days 0, 3, 5, 6, and 7, back and ear thickness was measured with calipers. Each measurement was performed blind, by a person unaware of the group or previous measurement. On Day 7, approximately 24 hours after the last imiquimod application, all mice were euthanized and blood collected via cardiac bleed into EDTA tubes. Plasma was isolated, and frozen. Tissues of interest were removed, weighed, recorded and frozen.

[12] = Homo sapiens, SU-DHL-2, MYD88 MUT, read-out: SU-DHL2 CTG IC50
[13] = Homo sapiens, OCI-Ly10, MYD88 MUT, read-out: OCI-LY10 CTG IC50
[14] = Homo sapiens, SU-DHL-6, MYD88 WT, read-out: SU-DHL6 CTG IC50
[15] = Homo sapiens, OCI-LY19, MYD88 WT, read-out: OCI-LY19 CTG IC50
[16] = OCI-LY10, 4 hrs, read-out: IRAK4 MSD degradation in OCI-LY10 at 4 hrs: Average external-Abs DC50
[17] = OCI-LY10, 24 hrs, read-out: IRAK4 MSD degradation in OCI-LY10 at 24 hrs: Average external-Abs DC50
[18] = Homo sapiens, U2932, MYD88 WT, read-out: U2932 CTG IC50

T1 sequence (Q9NWZ3 whole entry): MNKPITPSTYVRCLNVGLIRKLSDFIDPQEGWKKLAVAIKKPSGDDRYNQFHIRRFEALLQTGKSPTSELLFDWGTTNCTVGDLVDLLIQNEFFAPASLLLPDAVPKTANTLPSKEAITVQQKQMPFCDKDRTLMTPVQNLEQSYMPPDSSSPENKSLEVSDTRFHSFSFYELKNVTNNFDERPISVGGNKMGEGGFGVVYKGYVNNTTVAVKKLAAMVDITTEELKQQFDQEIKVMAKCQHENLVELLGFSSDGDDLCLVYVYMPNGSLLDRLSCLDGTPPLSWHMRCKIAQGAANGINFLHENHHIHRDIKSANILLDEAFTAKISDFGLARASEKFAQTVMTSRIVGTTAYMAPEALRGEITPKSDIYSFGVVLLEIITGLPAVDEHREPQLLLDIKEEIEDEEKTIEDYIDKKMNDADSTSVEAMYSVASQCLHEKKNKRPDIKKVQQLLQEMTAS

CN(CCCOCCNc1cccc2c1C(=O)N(C1CCC(=O)NC1=O)C2=O)C[C@H]1CC[C@H](n2cc(NC(=O)c3coc(-c4ccnc(NCC5CC5)c4)n3)c(C(F)F)n2)CC1 (stereo partly drawn) [I-168]
DC50 (IRAK4 [1]; read-out: IRAK4 OCI-LY10 DC50): 20 nM
pIC50 (SU-DHL2; [12]): 7.19
pIC50 (OCI-LY10 [2]; [13]): 7.51
pIC50 (SU-DHL6; [14]): 5.72
pIC50 (OCI-LY19; [15]): 6.37
DC50 (IRAK4 [3]): 78 nM
DC50 (AIOLOS [4]): 5 nM
pIC50 (OCI-LY10 [5]; Homo sapiens, OCI-Ly10, 96 h): > 7.30
pIC50 (OCI-LY3): 6.54
DC50 (IRAK4 [6]; [16]): 10 to 100 nM
DC50 (IRAK4 [6]; [17]): < 10 nM
pIC50 (U2932; [18]): 6.39
DC50 (IKAROS [7]): 5 nM

Cn1c(=O)n([C@H]2CCC(=O)NC2=O)c2cccc(CCCOC3CCN(CC4CCC(n5cc(NC(=O)c6cnn7ccc(N8CCOCC8)nc67)c(C(F)F)n5)CC4)CC3)c21 (stereo partly drawn) [I-257, N-[3-(difluoromethyl)-1-[4-[[4-[3-[1-[(3S)-2,6-dioxo-3-piperidyl]-3-methyl-2-oxo-benzimidazol-4-yl]propoxy]-1-piperidyl]methyl]cyclohexyl]pyrazol-4-yl]-5-morpholino-pyrazolo[1,5-a]pyrimidine-3-carboxamide]
DC50 (IRAK4 [1]; read-out: IRAK4 Degradation in OCI-LY10, DC50): 5 nM
DC50 (IRAK4 [1]; read-out: IRAK4 OCI-LY10 DC50): 5 nM
pIC50 (SU-DHL2; MYD88 MUT, read-out: SU-DHL2 CTG IC50): 5.16
pIC50 (SU-DHL2; MYD88 Mutant Lines, read-out: SU-DHL2 Viability, CTG IC50): 5.16
pIC50 (IL-6; hPBMC, R848 as stim, t = 20 h): > 9.00
pIC50 (OCI-LY10 [2]; MYD88 MUT, read-out: OCI-LY10 CTG IC50): 5.92
pIC50 (OCI-LY10 [2]; MYD88 Mutant Lines, read-out: OCI-LY10 Viability, CTG IC50): 5.92
pIC50 (SU-DHL6; MYD88 WT Lines, read-out: SU-DHL6 Viability, CTG IC50): 5.25
pIC50 (SU-DHL6; MYD88 WT, read-out: SU-DHL6 CTG IC50): 5.25
pIC50 (OCI-LY19; MYD88 WT Lines, read-out: OCI-LY19 Viability, CTG IC50): 5.33
pIC50 (OCI-LY19; MYD88 WT, read-out: OCI-LY19 CTG IC50): 5.33
DC50 (IRAK4 [3]): 3 nM
pIC50 (OCI-LY10 [5]): < 6.00
DC50 (IRAK4 [6]; [16]): < 10 nM
DC50 (IRAK4 [6]; [17]): < 10 nM
DC50 (IRAK4 [8]): < 10 nM
IRAK4 degradation in OCI-LY10 tumor xenograft (IRAK4 [9]; PO, BID (FIG. 18)): 90%
pIC50 (U2932; MYD88 WT Lines, read-out: U2932 Viability, CTG IC50): < 5.00
pIC50 (U2932; MYD88 WT, read-out: U2932 CTG IC50): 5.00
Regression of OCI-LY10 tumor xenograft (OCI-LY10 tumor xenograft; BID, 150 mg/kg (FIG. 18)): without regression
Regression of OCI-LY10 tumor xenograft (OCI-LY10 tumor xenograft; BID, 150 mg/kg (FIG. 18), listed as 1-257): without causing regression

O=C1CCC(N2C(=O)c3cccc(NCCCOC4CCN(C[C@H]5CC[C@H](n6cc(NC(=O)c7cnn8ccc(N9CCOCC9)nc78)c(C(F)F)n6)CC5)CC4)c3C2=O)C(=O)N1 (stereo partly drawn) [I-208]
DC50 (IRAK4 [1]; read-out: IRAK4 OCI-LY10 DC50): 20 nM
pIC50 (SU-DHL2; [12]): 6.44
pIC50 (OCI-LY10 [2]; [13]): 7.44
Ikaros ↓ (% Control) (IKAROS [10]; 24 mg/kg PO QD): 46.3 % Control
Ikaros ↓ (% Control) (IKAROS [10]; 72 mg/kg PO QD): 71.0 % Control
Ikaros ↓ (% Control) (IKAROS [10]; 240 mg/kg PO QD): 81.2 % Control
Interferon Response IFIT3 Increase (Fold) (IFIT3; 24 mg/kg PO QD): >43.1 Fold
Interferon Response IFIT3 Increase (Fold) (IFIT3; 72 mg/kg PO QD): >64.0 Fold
Interferon Response IFIT3 Increase (Fold) (IFIT3; 240 mg/kg PO QD): >59.7 Fold
pIC50 (SU-DHL6; [14]): 6.08
Aiolos ↓ (% Control) (AIOLOS [11]; 24 mg/kg PO QD): 30.9 % Control
Aiolos ↓ (% Control) (AIOLOS [11]; 72 mg/kg PO QD): 62.4 % Control
Aiolos ↓ (% Control) (AIOLOS [11]; 240 mg/kg PO QD): 68.6 % Control
pIC50 (OCI-LY19; [15]): 5.77
DC50 (IRAK4 [3]): 130 nM
DC50 (AIOLOS [4]): < 3 nM
pIC50 (OCI-LY10 [5]; Homo sapiens, OCI-Ly10, 96 h): > 7.30
pIC50 (OCI-LY3): 5.52
DC50 (IRAK4 [6]; [16]): 10 to 100 nM
Interferon Response IFIT1 Increase (Fold) (IFIT1; 24 mg/kg PO QD): >24.4 Fold
Interferon Response IFIT1 Increase (Fold) (IFIT1; 72 mg/kg PO QD): >41.5 Fold
Interferon Response IFIT1 Increase (Fold) (IFIT1; 240 mg/kg PO QD): >38.7 Fold
IRAK4 ↓ (% Control) (IRAK4 [9]; 24 mg/kg PO QD): 57.8 % Control
IRAK4 ↓ (% Control) (IRAK4 [9]; 72 mg/kg PO QD): 78.7 % Control
IRAK4 ↓ (% Control) (IRAK4 [9]; 240 mg/kg PO QD): 86.5 % Control
pIC50 (U2932; [18]): 5.74
DC50 (IKAROS [7]): 3 nM
Regression of OCI-LY10 tumor xenograft (OCI-LY10 tumor xenograft; single agent, QD, 24, 72, and 240 mg/kg (FIG. 21)): with regression
Regression of OCI-LY10 tumor xenograft (OCI-LY10 tumor xenograft; single agent, QD, 24, 72, and 240 mg/kg (FIG. 21), listed as 1-208): drives regression

Cn1c(=O)n(C2CCC(=O)NC2=O)c2cccc(C#CCOC3CCN(C[C@H]4CC[C@H](n5cc(NC(=O)c6cnn7ccc(N8C[C@H]9C[C@@H]8CO9)nc67)c(C(F)F)n5)CC4)CC3)c21 (stereo partly drawn) [I-417, N-[3-(difluoromethyl)-1-[4-[[4-[3-[1-(2,6-dioxo-3-piperidyl)-3-methyl-2-oxo-benzimidazol-4-yl]prop-2-ynoxy]-1-piperidyl]methyl]cyclohexyl]pyrazol-4-yl]-5-[(1R,4R)-2-oxa-5-azabicyclo[2.2.1]heptan-5-yl]pyrazolo[1,5-a]pyrimidine-3-carboxamide]
pIC50 (IL-6; Homo sapiens, 20 h, read-out: IL-6 Secretion in hPBMC, R848 as stim, t = 20 h: IC50): > 9.00
skin thickening in mice treated with topical imiquimod (C57BL/6 mice): significantly reduced skin thickening
pIC50 (OCI-LY10 [5]; Homo sapiens, 96 h): < 6.00
